Data published in patent US7307166B1, “Oxpurine nucleosides and their congeners, and acyl, derivatives thereof, for improvement of hematopoiesis” (Wellstat Therapeutics Corporation, priority 1987, dated 2007).

Columns and labels:
female Balb/C mice [1] = test: Survival of mice irradiated with Cobalt 60 gamma radiation; assay type: in vivo, mouse; conditions: for number of mice surviving 30 days after irradiation over number irradiated: 50 mg/kg i.p. daily 6 days from 24 h after irradiation
[2] = test system: Normal Balb/C female mice; test: Hematopoiesis in normal mice; assay type: in vivo, mouse
Description: Normal, otherwise untreated, female Balb/C mice weighing approximately 20 grams each received a total of 4 or 9 0.4 ml intraperitoneal injections (one per day) of either Tween-80 (0.2%) (controls), palmitoylguanosine ([…]), or palmitoyldeoxyinosine ([…]). Twenty-four hours after the 4th or 9th treatment, groups of 5 or 6 animals from each of the 3 groups were bled and then sacrificed by cervical dislocation. Spleens were removed and weighed, and complete blood cell counts performed.
Normal Balb/C female mice weighing approximately 20 grams each were given a daily 0.4 ml i.p. injection of either physiological saline (controls), palmitoylguanosine (2.6 μmoles/mouse), palmitoyldeoxyguanosine (2.6 μmoles/mouse), monopalmitoylguanosine 2′,3′-acyclic dialcohol (2.6 μmoles/mouse), and palmitoyl-8-bromoguanosine (2.6 μmoles/mouse) for 4 days. On the fifth day all 3 animals in each of the 5 groups were bled and then sacrificed by cervical dislocation. Spleens were removed and weighed, and complete blood cell counts performed. Femoral bone marrow from each mouse was collected and a differential cell count performed on marrow smears.

FDCPmix cells = test: FDCPmix cell proliferation in the presence of IL-3 (MTT assay); assay type: cell-based
Description: The FDCPmix cell line was used as a suitable in vitro model for predicting the effects of hematopoietic factors on pluripotential stem cells. These cells can be maintained in an undifferentiated state in the presence of IL-3 or undergo multi-lineage development in the presence of specific hematopoietic growth factors.
This level of proliferation (100%) served as the control value. Inhibition of proliferation by test compounds was represented as a percent of control.
FDCPmix cells were plated at a density of 5×10^4 cells per well in 96-well plates (5×10^5/ml) using IMDM medium plus 10% fetal bovine serum. […] Test compounds were added at a decreasing concentrations ranging from 10 micrograms/ml down to 1 nanogram/ml. The test compounds included: 3′,5′-O—N^2-tripalmitoyl-2′-deoxyguanosine, 3′,5′-di-O-palmitoyl-2′-deoxy-guanosine, 3′,5′-O—N^2-trioctanoyl-2′-deoxyguanosine, 3′,5′-di-O-octanoyl-2′-deoxyguanosine, and 3′,5′-o-N^2-trioleyl-2′-deoxy-guanosine.

female Balb/C mice [3] = test: Cisplatin-induced myelosuppression; assay type: in vivo, mouse; conditions: for survival: day 11
Description: A study was conducted to assess the effects of N^2,3′,5′-tripalmitoyldeoxyguanosine (PdG) in reducing the hematologic toxicity of cisplatin. Female Balb/C mice were divided into groups of five animals each per dose per time point. Half of the groups were given a series of three daily doses of PdG (25 mg/kg) by intraperitoneal injection and the other half were treated with the vehicle alone. Twenty-four hours later, the animals were given a single dose of cisplatin by intraperitoneal injection at one of four doses: 8, 11, 12 or 15 mg/kg. Blood samples were taken by retro-orbital eye bleed at four, seven and 11 days after administration of cisplatin.

TNF-alpha = test: LPS-induced serum TNF-alpha (ELISA); assay type: in vivo, mouse
Description: Sixty-three female Balb/C mice were randomly assigned to one of three groups. The animals in one group received a single daily dose of N^2,3′,5′-tripalmitoyldeoxyguanosine (PdG) (25 mg/kg, i.p.), while a second group received a single daily dose of the PdG treatment vehicle (control). The third group was left untreated. On the fourth day 100 μg salmonella typhimurium LPS was administered to all three groups. Serum samples were taken just prior to LPS administration (t=0) and at two, four, six, eight, ten, twelve, sixteen, and twenty hours after LPS administration. The samples were then frozen until the time of assay. Serum levels of TNF-alpha, and IFN-gamma were measured by ELISA.
In the tables below, units for cytokine concentrations are picograms per ml. A value of 0 indicates cytokine levels below the detection limit of the assay (50 to 100 pg/ml).

[4] = day 4 after cisplatin 8 mg/kg, PdG 25 mg/kg x3 before
[5] = day 4 after cisplatin 11 mg/kg, PdG 25 mg/kg x3 before
[6] = day 4 after cisplatin 12 mg/kg, PdG 25 mg/kg x3 before
[7] = day 4 after cisplatin 15 mg/kg, PdG 25 mg/kg x3 before
[8] = day 7 after cisplatin 8 mg/kg, PdG 25 mg/kg x3 before
[9] = day 7 after cisplatin 11 mg/kg, PdG 25 mg/kg x3 before
[10] = day 7 after cisplatin 12 mg/kg, PdG 25 mg/kg x3 before
[11] = day 7 after cisplatin 15 mg/kg, PdG 25 mg/kg x3 before
[12] = day 11 after cisplatin 8 mg/kg, PdG 25 mg/kg x3 before
[13] = day 11 after cisplatin 11 mg/kg, PdG 25 mg/kg x3 before
[14] = day 11 after cisplatin 12 mg/kg, PdG 25 mg/kg x3 before
[15] = day 11 after cisplatin 15 mg/kg, PdG 25 mg/kg x3 before

CCCCCCCCCCCCCCCC(=O)OC[C@H]1O[C@@H](n2cnc3c(=O)[nH]c(N)nc32)[C@H](O)[C@@H]1O
number of mice surviving 30 days after irradiation over number irradiated (female Balb/C mice [1]; 725 R): 5/5 | number of mice surviving 30 days after irradiation over number irradiated (female Balb/C mice [1]; 750 R): 5/5 | survival (female Balb/C mice [1]; pretreatment prior to irradiation): improved survival | spleen weights ([2]; Ex 44: day 5, 2.5 Moles/mouse/day i.p., 4 injections): significantly greater | total leukocyte counts ([2]; Ex 44: day 10, 9 injections): significantly elevated | spleen weight ([2]; Ex 56: fifth day, 2.6 μmoles/mouse i.p. daily 4 days): significantly elevated

CCCCCCCCCCCCCCCC(=O)Nc1nc2c(ncn2[C@H]2C[C@H](OC(=O)CCCCCCCCCCCCCCC)[C@@H](COC(=O)CCCCCCCCCCCCCCC)O2)c(=O)[nH]1 [PdG, 3′,5′-O-N^2-tripalmitoyl-2′-deoxyguanosine]
Cell proliferation (% of Control) (FDCPmix cells; Dose 10 ng): 78 ± 1 % of Control | Cell proliferation (% of Control) (FDCPmix cells; Dose 39 ng): 76 ± 2 % of Control | Cell proliferation (% of Control) (FDCPmix cells; Dose 156 ng): 72 ± 3 % of Control | Cell proliferation (% of Control) (FDCPmix cells; Dose 625 ng): 60 ± 2 % of Control | Cell proliferation (% of Control) (FDCPmix cells; Dose 2.5 μg): 51 ± .7 % of Control | Cell proliferation (% of Control) (FDCPmix cells; Dose 10 μg, 48 hours, IL-3 25 units/ml): 51 ± .6 % of Control | effect on red blood cells (female Balb/C mice [3]; any time point): no effect | WBC (female Balb/C mice [3]; day 4 after cisplatin 8 mg/kg, PdG 25 mg/kg i.p. 3 daily doses before): 10.2 ± 1.4 K/μL | Lymphocytes (female Balb/C mice [3]; [4]): 8.0 ± 0.9 K/μL | Neutrophils (female Balb/C mice [3]; [4]): 1.77 ± 0.3 K/μL | Lymphocytes (female Balb/C mice [3]; [5]): 7.9 ± 1.1 K/μL | Neutrophils (female Balb/C mice [3]; [5]): 3.99 ± 0.7 K/μL | WBC (female Balb/C mice [3]; [5]): 7.2 ± 0.6 K/μL | Lymphocytes (female Balb/C mice [3]; [6]): 5.14 ± 1.0 K/μL | Neutrophils (female Balb/C mice [3]; [6]): 1.59 ± 0.3 K/μL | WBC (female Balb/C mice [3]; [6]): 6.9 ± 0.9 K/μL | Lymphocytes (female Balb/C mice [3]; [7]): 4.37 ± 0.61 K/μL | Neutrophils (female Balb/C mice [3]; [7]): 2.69 ± 1.3 K/μL | WBC (female Balb/C mice [3]; [7]): 7.1 ± 1.0 K/μL | Lymphocytes (female Balb/C mice [3]; [8]): 5.38 ± 0.71 K/μL | Neutrophils (female Balb/C mice [3]; [8]): 2.74 ± 0.50 K/μL | Platelets (female Balb/C mice [3]; [8]): 910 ± 135 K/μL | Lymphocytes (female Balb/C mice [3]; [9]): 5.44 ± 0.22 K/μL | Neutrophils (female Balb/C mice [3]; [9]): 4.58 ± 0.3 K/μL | Platelets (female Balb/C mice [3]; [9]): 974 ± 49 K/μL | WBC (female Balb/C mice [3]; [9]): 9.4 ± 0.83 K/μL | Lymphocytes (female Balb/C mice [3]; [10]): 5.14 ± 0.91 K/μL | Neutrophils (female Balb/C mice [3]; [10]): 3.23 ± 0.7 K/μL | WBC (female Balb/C mice [3]; [10]): 8.5 ± 0.9 K/μL | Lymphocytes (female Balb/C mice [3]; [11]): 2.80 ± 0.44 K/μL | Neutrophils (female Balb/C mice [3]; [11]): 4.06 ± 0.46 K/μL | WBC (female Balb/C mice [3]; [11]): 7.0 ± 0.38 K/μL | survival (female Balb/C mice [3]; 12 mg/kg cisplatin (60% of the controls had died)): All | survival (female Balb/C mice [3]; 15 mg/kg cisplatin (all control animals dead)): three of five | Lymphocytes (female Balb/C mice [3]; [12]): 7.9 ± 0.5 K/μL | Neutrophils (female Balb/C mice [3]; [12]): 1.33 ± 0.32 K/μL | Platelets (female Balb/C mice [3]; [12]): 994 ± 29 K/μL | WBC (female Balb/C mice [3]; [12]): 9.3 ± 0.3 K/μL | Lymphocytes (female Balb/C mice [3]; [13]): 7.9 ± 1.23 K/μL | Neutrophils (female Balb/C mice [3]; [13]): 1.00 ± 0.37 K/μL | Platelets (female Balb/C mice [3]; [13]): 968 ± 47 K/μL | WBC (female Balb/C mice [3]; [13]): 8.7 ± 1.0 K/μL | Lymphocytes (female Balb/C mice [3]; [14]): 5.34 ± 0.73 K/μL | Neutrophils (female Balb/C mice [3]; [14]): 3.26 ± 0.48 K/μL | Platelets (female Balb/C mice [3]; [14]): 738 ± 35 K/μL | WBC (female Balb/C mice [3]; [14]): 8.7 ± 0.6 K/μL | Lymphocytes (female Balb/C mice [3]; [15]): 7.65 ± 0.49 K/μL | Neutrophils (female Balb/C mice [3]; [15]): 2.02 ± 0.68 K/μL | Platelets (female Balb/C mice [3]; [15]): 657 ± 113 K/μL | WBC (female Balb/C mice [3]; [15]): 9.7 ± 0.3 K/μL | platelet counts higher than in vehicle-treated control animals (female Balb/C mice [3]; day four, cisplatin 8 mg/kg): approximately 30% | serum TNF-alpha (TNF-alpha; 0 hr after LPS 100 μg, PdG 25 mg/kg i.p. daily before, 0 = below detection limit): 0 picograms per ml | serum TNF-alpha (TNF-alpha; 2 hr after LPS): 1509 ± 86 picograms per ml | serum TNF-alpha (TNF-alpha; 4 hr after LPS): 529 ± 141 picograms per ml | serum TNF-alpha (TNF-alpha; 6 hr after LPS): 486 ± 63 picograms per ml | Peak TNF-alpha levels vs control groups (TNF-alpha; PdG 25 mg/kg i.p.): four-fold lower
